# Test results published in PMC9355956 (Communications Biology, 2022).
# “And” between values parts separate entries of the source, which are not always exact repeats. Equal entries are not always repeated. “Also recorded” adds a separate entry of the source. Structures can show the parent of a compound that is named as a salt. Where two headings read alike, the source gives them in different places.
# How the values were obtained:
# [1] = target: T1, hSMOX (Homo sapiens, UniProt Q9NWM0); assay: hSMOX HyPerBlu chemiluminescent enzyme activity assay (H2O2 detection, Spm substrate); assay type: biochemical; conditions: for time-dependent inhibition of hSMOX: ± 2 h preincubation with enzyme
# T1 construct: 6xHis (N); TEV cleavage site (N); made in house; host or cells: E. coli BL21(D3), plasmid PET28b(+)
# T1 sequence (Q9NWM0 whole entry): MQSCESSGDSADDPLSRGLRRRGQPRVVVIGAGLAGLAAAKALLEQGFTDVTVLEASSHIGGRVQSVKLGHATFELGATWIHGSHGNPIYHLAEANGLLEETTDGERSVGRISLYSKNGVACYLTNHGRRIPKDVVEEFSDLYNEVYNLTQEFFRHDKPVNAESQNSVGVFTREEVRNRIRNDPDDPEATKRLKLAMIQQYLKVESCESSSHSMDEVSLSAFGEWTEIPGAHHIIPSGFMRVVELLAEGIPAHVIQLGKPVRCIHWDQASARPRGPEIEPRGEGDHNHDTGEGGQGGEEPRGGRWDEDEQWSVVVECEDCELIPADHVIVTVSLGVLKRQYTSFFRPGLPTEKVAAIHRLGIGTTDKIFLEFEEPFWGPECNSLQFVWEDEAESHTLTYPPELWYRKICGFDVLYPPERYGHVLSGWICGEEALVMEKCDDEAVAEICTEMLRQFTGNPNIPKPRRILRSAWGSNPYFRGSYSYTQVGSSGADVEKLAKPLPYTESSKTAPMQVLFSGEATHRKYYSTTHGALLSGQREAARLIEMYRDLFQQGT
# Excerpt: Based on this assay, we carried out a high-throughput screening campaign searching for inhibitors of hSMOX against a diverse compound collection.
# [2] = target: hPAOX (Homo sapiens, UniProt Q6QHF9); assay: hPAOX HyPerBlu enzyme activity assay (N-AcSpm substrate)
# Chain of hPAOX (Q6QHF9 whole entry): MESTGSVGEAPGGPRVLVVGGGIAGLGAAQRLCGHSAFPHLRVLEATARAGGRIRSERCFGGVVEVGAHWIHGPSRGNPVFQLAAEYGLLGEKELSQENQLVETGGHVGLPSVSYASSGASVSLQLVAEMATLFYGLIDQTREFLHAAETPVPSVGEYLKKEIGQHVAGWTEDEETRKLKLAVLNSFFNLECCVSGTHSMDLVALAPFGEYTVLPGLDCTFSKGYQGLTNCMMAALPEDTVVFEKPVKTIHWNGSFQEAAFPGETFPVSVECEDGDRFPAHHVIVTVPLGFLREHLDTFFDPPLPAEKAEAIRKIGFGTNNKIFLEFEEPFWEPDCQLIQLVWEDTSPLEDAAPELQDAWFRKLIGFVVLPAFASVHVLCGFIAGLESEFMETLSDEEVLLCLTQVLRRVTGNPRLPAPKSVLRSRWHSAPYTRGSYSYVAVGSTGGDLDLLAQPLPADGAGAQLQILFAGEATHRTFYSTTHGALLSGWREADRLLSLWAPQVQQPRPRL
# [3] = target: T1, hSMOX; assay: nanoDSF thermal denaturation of purified SMOX; assay type: binding; conditions: 10 μM SMOX, 100 μM compound
# Procedure: All nanoDSF experiments were performed on a nanoTEMPER Prometheus NT.48 instrument. 10 μM purified SMOX was incubated with 100 μM compound of interest for 10 min and loaded onto the instrument. Thermal denaturation (25–90 °C) was conducted at 1.0 °C/min and 45% intensity. Tm was calculated using PR.ThermControl software as the inflection point of the first derivative of Trp fluorescence during the temperature gradient measured at 350/330 nm. All experiments were performed in triplicate.
# [4] = target: T2, hSMOX in A549 cells (Homo sapiens, UniProt Q9NWM0); assay: CETSA in A549 cells with hSMOX AlphaLISA detection; assay type: cell-based; conditions: A549 intact cells, 54 °C, vs vehicle
# T2 construct: human lung carcinoma cells (A549) which endogenously produce high levels of hSMOX; endogenous in cells; host or cells: A549 human lung carcinoma cells
# T2 sequence (Q9NWM0 whole entry): as the sequence (Q9NWM0 whole entry) above
# Excerpt: To determine whether JNJ-1289 would be able to target hSMOX in a cellular environment, we developed a Cellular Thermal Shift Assay (CETSA®)[52] using human lung carcinoma cells (A549) which endogenously produce high levels of hSMOX[53]. CETSA evaluates the binding of low molecular weight compounds to target proteins directly in intact cells by taking advantage of the increased resistance to thermal denaturation that ligand binding can confer on proteins. Detection of the relative amounts of remaining soluble protein using AlphaLISA after incubation of A549 cells at the optimal melting temperature of hSMOX for CETSA (54 °C) was performed in the presence or absence of hSMOX ligands.
# A549 (adenocarcinoma human alveolar basal epithelial cells) express relatively high levels of hSMOX. Their use has been widely reported in the literature for the investigation of the polyamine catabolic pathway. In our case, using hSMOX high-expressing cells with CETSA and AlphaLISA systems provided the optimal platform for screening promising small molecules for hSMOX inhibition.
# T175 culture flasks with 80–90% confluent cells were used for harvesting after washing two times with PBS followed by the addition of 2 mL TrypLE^TMselect (Gibco) per flask and incubation for 5 min at 37 °C. After dissociation, cells were resuspended in 1 mL culture medium (DMEM (Gibco) with 10% fetal calf serum) and 7 mL PBS. Cells from multiple flasks were pooled, spun down for 5 min at 300 × g, and resuspended to 20 million cells/mL in PBS.
# Compounds were dissolved in DMSO to 1 mM stocks. Compound stocks and DMSO controls were added to vials containing 1 mL cell suspension to an end concentration of 10 µM compound and 1% DMSO. Vials were incubated at 37 °C for 1 h while shaking at 125 rpm. Subsequently, vials were cooled on ice and cells were distributed to PCR vials at 20 µL per vial. Transient heating of the cells was performed using a PCR Thermocycler. Vials were heated up to 54 °C for 1 min and then immediately cooled on ice. For temperature range experiments the heating step was repeated increasing the temperature with each next vial with 1 °C. After the cooling step cells were lysed by adding 80 µL 1x AlphaLISA-buffer (Perkin Elmer).
# The hSMOX specific AlphaLISA was developed using internally monoclonal rabbit antibody mAb#2 and F(ab’)2 fragment Fab#33 against hSMOX containing a C-terminal His-tag. Both mAb#2 and Fab#33 are specific for hSMOX and selected for their ability to detect hSMOX without interfering with its catalytic activity. Care was taken to confirm that both mAb#2 and Fab#33 bind to distinct (conformational) epitopes. […] After 1 h Alpha signal was read using an Alpha compatible reader. […]
# [5] = target: LSD1 (Homo sapiens, UniProt O60341); assay: LSD1 HyPerBlu enzyme activity assay (H3K4me2 peptide substrate)
# [6] = target: T1, hSMOX; assay: Progress curve analysis of hSMOX inhibition (on rate, mode of inhibition); assay type: biochemical
# Procedure: Reactions were initiated with 3 µL/well of 2x hSMOX and quenched at several time points up to 1 h with 3 µL/well of 25 µM final chlorhexidine. […] Thereafter, 9 µL/well of HyPerBlu reagent was added.
# Time point data up to 1 h of reaction time was captured by dispensing 3 µL/well of 25 µM final chlorhexidine to quench the reactions followed by the addition of 9 µL/well HyPerBlu reagent.
# Supplementary Fig. 11. Kinetics of JNJ-1289. a, Reaction progress curve analysis of 2 nM […]
# Progress curves were monitored for 1h and fit to Eqn S1 at each JNJ-1289 concentration to determine the observed rate constant, kobs.
# [P] = Y0 + υ t + υi−υs (1 − e−kobst) (S1) […]
# where υi and υs are the initial and steady state velocities, respectively, t is time and kobs represents the observed rate constant. b, Replot of kobs vs. [JNJ-1289] was hyperbolic, which indicated a two-step binding mechanism […]
# where I is the inhibitor concentration, k5 and k6 are the estimated forward and reverse rate constants, respectively, and Kiapp is the apparent value of the initial E·I complex. […]
# concentrations (7.8 – 1000 µM). Progress curves were monitored for 1h and fit to Eqn S3 at […]
# (1 picture or pasted object on this page, not shown here)
# [7] = target: T1, hSMOX; assay: Thermal shift assay (ThermoFluor, ANS dye) of purified hSMOX; assay type: binding; conditions: compared to DMSO control
# Procedure: The fluorescent dye ANS (Molecular Probes) was used to monitor the thermal denaturation of hSMOX. Assay buffer consisting of 10 mM HEPES pH 7.5, 150 mM NaCl, 0.005% P20 was used for all dilutions. The assay was performed in 384-well Hard Shell thin-wall PCR plates (Bio-Rad). 120 nL of ligand was dispensed into the 384-well plate using acoustic dispensing technology followed by the addition of 4 µL of 0.2 mg/ml of hSMOX with 60 µM ANS dye. Replicates of 4% DMSO protein control were set up in each plate. Wells were covered with 1 µL silicone oil. Plates were centrifuged at 1000 rpm for 2 min. The Tm’s were measured using a ThermoFluor instrument. The plates were heated from 30 to 80 °C at a rate of 1 °C per minute. The ΔTm is calculated as the difference between the Tm of each well and that of the average 4% DMSO protein control.
# [8] = target: murine SMOX enzyme; conditions: value reported for the murine SMOX enzyme; cited from earlier work
# [9] = 2.5 nM hSMOX, 30 µM Spm, 1 h reaction, HTS assay conditions, read-out: IC50 hSMOX
structure (smiles),measurement,setting,value
"NCCCNCCCCNCCCN [Spm, spermine]",kcat hSMOX,"[1]; substrate, 2.5 nM hSMOX",4 s⁻¹
"CC(=O)NCCCNCCCCNCCCN [N-AcSpm, N^1-acetylspermine trihydrochloride]",Km,"[2]; read-out: Km for hPAOX, substrate, 0.076 nM hPAOX",20.1 ± 0.63 µM
same,kcat hPAOX,"[2]; substrate, 0.076 nM hPAOX",57 s⁻¹
"Oc1ccc(Nc2nc(-c3cnc4ccccn34)cs2)cc1 [JNJ-1289, 4-((4-imidazo[1,2,α]pyridine-3-ylthiazol-2-yl)amino)phenol]",thermal stability of hSMOX (nanoDSF),[3],increase the thermal stability of the protein
same,IC50,[1]; [9],50 nM
same,IC50,"[1]; 2 h preincubation, 30 µM Spm, read-out: IC50 hSMOX, 2 h (120 min) enzyme-inhibitor preincubation",5.5 nM and 8 nM
same,"IC50 hSMOX, 4 h (240 min) enzyme-inhibitor preincubation","[1]; 4 h preincubation, 30 µM Spm",within twofold of the results observed using a 120 min pre-incubation
same,IC50,"[1]; IC50 hSMOX, 4 h (240 min) enzyme-inhibitor preincubation, 4 h preincubation, 30 µM Spm",3.2 nM
same,IC50,"[1]; no preincubation, 30 µM Spm, read-out: IC50 hSMOX, 0 h enzyme-inhibitor preincubation",143 nM and 127 nM
same,time-dependent inhibition of hSMOX,[1],selective and time-dependent inhibition; also recorded: time-dependent hSMOX inhibitor
same,cellular hSMOX engagement (AlphaLISA signal after heating),[4],absence of cellular hSMOX engagement; also recorded: apparent lack of target engagement
same,IC50,[2],> 2000 nM
same,time-dependent inhibition of hPAOX,[2]; ± 2 h preincubation with enzyme,do not observe time-dependent inhibition
same,IC50,[5],> 2000 nM
same,mode of inhibition with respect to Spm,"[6]; 312 nM inhibitor, varying Spm, 2 nM hSMOX",competitive hSMOX inhibitor
same,t1/2 dissociation,[6]; from 0.693/koff,7.7 h
same,Ki,[6]; read-out: apparent Ki (Ki app) of the initial E·I complex,1400 nM
same,kon,[6]; read-out: apparent second-order on-rate constant (kon),2500 M⁻¹ s⁻¹
same,koff,[6]; read-out: calculated first-order dissociation rate constant (koff),2.5e-05 s⁻¹
same,ΔTm of hSMOX (thermal shift),[7],11.3 °C
CCNCCCNCCCNCCCNCC [Benspm],cellular hSMOX engagement (AlphaLISA signal after heating),[4],absence of cellular hSMOX engagement
"C=C=CCNCCCCNCC=C=C [MDL72527, reference compound]",thermal stability of hSMOX (nanoDSF),[3],increase the thermal stability of the protein
same,cellular hSMOX engagement (AlphaLISA signal after heating),[4],robust cellular hSMOX engagement
"[H]/N=C(\N/C(=N/[H])NCCCCCCNC(=N)NC(=N)Nc1ccc(Cl)cc1)Nc1ccc(Cl)cc1 [chlorhexidine, reference compound]",inhibition of hSMOX (in words),[1],robust inhibition
same,IC50,[1]; [9],1900 nM
same,inhibition of hSMOX (in words),[1]; listed as Chlorhexidine,inhibited
same,time-dependent inhibition of hSMOX,[1],not observed
same,time-dependent inhibition of hSMOX,[1]; listed as Chlorhexidine,did not display time-dependent inhibition
same,cellular hSMOX engagement (AlphaLISA signal after heating),[4],absence of cellular hSMOX engagement
same,Ki,[8],3800 ± 200 nM
